From patent US6528251B2, “Method of managing the chemotherapy of patients who are HIV positive based on the phenotypic drug sensitivity of human HIV strains” (Virco N.V., priority 1996, dated 2003)
Where two headings read alike, the source gives them in different places.

Tests used:
Format in all cases: cell-based, HIV-1
[1] = system: Recombinant wild type HIV strain recIIIB; experiment: Antiviral MT4/MTT assay with reference virus recIIIB; conditions: read-out: Anti-HIV-1 activity IC50 (μM) recIIIB ref (2)
[2] = system: recombinant virus from patient viral RNA (Example 5, 3TC resistant HIV strains); experiment: Recombinant virus assay (MT4/MTT), patient of Example 5 (AZT, then AZT+3TC therapy); conditions: for IC50: Human immunodeficiency virus 1, Table 1, Example 5 patient virus
Procedure: (§1) RNA was isolated from 100 μl of plasma according to the method described by Boom, R. et al. (1990, supra), and was reverse transcribed with the GeneAmp reverse transcriptase kit (Perkin Elmer) as described by the manufacturer and using an HIV-1 specific downstream primer (OUT3: 5′-CATTGCTCTCCAATTACTGTGATATTTCTCATC-3′; SEQ ID NO: 1). PCR on reverse transcribed RNA was performed with inner and outer primers as described by Kellam, P. and Larder, B. A. (1994, supra). After chloroform extraction and centrifugation on Centricon 100 columns or centrifugation on anion-exchange spin columns (Quiagen), the isolated PCR product was ready for use in the transfection reactions.
(§2) MT4 cells were subcultured at a density of 250,000 cells/ml before transfection (exponential growth phase). Cells were pelleted and resuspended in phosphate buffered saline (PBS) at a concentration of […]. A 0.8 ml portion (2.5 10E6 cells/ml) was used for each transfection. Transfection was performed with the Bio-Rad Gene pulser making use of 0.4 cm electrode cuvettes. Cells were electroporated in the presence of […] of linearised pHIVΔRT plasmid and approximately 5 μg of RT PCR product at 250SF and 300 V, followed by a 30-min incubation at room temperature. Subsequently, 10 ml of fresh culture medium was added to the cell suspension and incubation was performed at 37° C. in a humidified atmosphere of 5% CO2.
(§3) During 7 to 10 days following the transfection, cells were monitored for the appearance of cytopathogenic effect (CPE). In the absence thereof, cells were subcultured in different flasks. Subsequently, culture supernatants of transfected cells were used to create a stock of recombinant virus and stored in 1.5 ml aliquots at −70° C.
(§4) After titration of the new viruses, the stocks were used for antiviral experiments in the presence of serial dilutions of different HIV inhibitors. Titres of the harvested supematants were determined by limited serial dilution titration of virus in MT4 cells.
(§5) Viruses with a useful titre were used in antiviral experiments. For this purpose, 96-well microtitre plates were filled with 100μl of complete culture medium. Subsequently, stock solutions of compounds were added in 25 μl volumes to series of duplicate wells. HIV- and mock-infected cell samples were included for each drug (or drug combination). Exponentially growing MT4 cells were then transferred to the microtitre plates at a density of 150,000 cells/ml. The cell cultures were then incubated at 37° C. in a humidified atmosphere of 5% CO2. Five days after infection, the viability of the mock- and HIV-infected cells was examined spectrophotometrically by the M1T method (Pauwels, R. et al. J. Virol. Meth. (1988), 20: 309-321) as described in Section 6 below.
(§6) To each well of the microtiter plates, 20 μl of a solution of MTT (7.5 mg/ml in PBS) was added. The plates were further incubated at 37° C. for 1 h. Then, 150 μl of medium was removed without disturbing the MT4 cell clusters containing the formazan crystals. Solubilization of the formazan crystals was achieved by adding 100 μl 5% Triton X-100 in acidified isopropanol (5 ml concentrated HCl per liter solvent). Complete dissolution of the formazan crystals was obtained after the plates had been placed on a plate shaker for 10 min. Finally the absorbances were read at two wavelengths (540 and 690 nm). From these optical density (OD) data, 50% inhibitory (IC50) and 50% cytotoxic (CC50) concentrations were derived.
An HIV infected patient who received AZT from December 1989 until an undocumented later date, and switched to a combined chemotherapy of AZT+3TC (1:1) from February 1994 until October 1995 donated plasma whose susceptibility to a number of RT inhibitors was determined according to the above described protocol of Example 1. Recombinant wild type HIV strain recIIIB was used in said protocol as a reference HIV virus.

[3] = system: recombinant virus from patient viral RNA (Example 6, drug-naive patient); experiment: Recombinant virus assay (MT4/MTT), drug-naive patient of Example 6; conditions: for IC50: Human immunodeficiency virus 1, Table 2, Example 6 patient virus
Procedure: as §1, §2, §3, §4, §5, §6
A drug-naive HIV infected patient donated plasma whose susceptibility to a number of RT inhibitors was determined according to the above described protocol of Example 1. Recombinant wild type HIV strain recIIIB was used in said protocol as a reference HIV virus.

[4] = system: recombinant virus from patient viral RNA (Example 7, drug-naive patient); experiment: Recombinant virus assay (MT4/MTT), drug-naive patient of Example 7; conditions: for IC50: Human immunodeficiency virus 1, Table 3, Example 7 patient virus
Procedure: as §1, §2, §3, §4, §5, §6
A drug-naive HIV-infected patient donated plasma whose susceptibility to a number of RT inhibitors was determined according to the protocol set out in Example 1. Recombinant wild type HIV strain recIIIB was used as a reference HIV virus.

[5] = system: recombinant virus from patient viral RNA (Example 8); experiment: Recombinant virus assay (MT4/MTT), patient of Example 8 (therapy history AZT, 3TC and loviride); conditions: for IC50: Human immunodeficiency virus 1, Table 4, Example 8 patient virus
Procedure: as §1, §2, §3, §4, §5, §6
(§7) An HIV-infected patient with a therapy history including AZT, 3TC and loviride donated plasma whose susceptibility to a number of RT inhibitors was determined according to the protocol set out in Example 1. Recombinant wild type HIV strain recIIIB was used as a reference HIV virus.

[6] = system: recombinant virus from patient viral RNA (Example 9); experiment: Recombinant virus assay (MT4/MTT), patient of Example 9 (multiple nucleoside analogue RT-inhibitors); conditions: for IC50: Human immunodeficiency virus 1, Table 5, Example 9 patient virus
Procedure: as §1, §2, §3, §4, §5, §6
as §7, with “multiple nucleoside analogue RT-inhibitors” for “AZT, 3TC and loviride”

[7] = MT4 cells, read-out: Anti-HIV-1 activity IC50 (μM) Exp. 1
[8] = MT4 cells, read-out: Anti-HIV-1 activity IC50 (μM) Exp. 2
[9] = mean of Exp. 1 and 2, read-out: Anti-HIV-1 activity IC50 (μM) Mean (1)
[10] = mean, read-out: Anti-HIV-1 activity IC50 (μM) Mean (1)

O=c1[nH]cnc2c1ncn2[C@H]1CC[C@@H](CO)O1 [ddI, didanosinen]
IC50 ([1]; Human immunodeficiency virus 1, Table 1, reference run of Example 5): 2.83 µM
IC50 ([1]; Human immunodeficiency virus 1, Table 2, reference run of Example 6): 8.58 µM
IC50 ([1]; Human immunodeficiency virus 1, Table 3, reference run of Example 7): 0.648 µM
IC50 ([1]; Human immunodeficiency virus 1, Table 4, reference run of Example 8): 1.59 µM
IC50 ([1]; Human immunodeficiency virus 1, Table 5, reference run of Example 9): 4.76 µM
IC50 [2, 7]: 2 µM
IC50 [2, 8]: 0.8 µM
IC50 [2, 9]: 1.4 µM
ratio (1)/(2) ([2]; Table 1, patient mean IC50 / recIIIB IC50, Example 5): 0.5
IC50 [3, 7]: 3.07 µM
IC50 [3, 8]: 4.47 µM
IC50 [3, 9]: 3.77 µM
ratio (1)/(2) ([3]; Table 2, patient mean IC50 / recIIIB IC50, Example 6): 0.4
IC50 [4, 7]: 0.475 µM
IC50 [4, 8]: 0.429 µM
IC50 [4, 10]: 0.452 µM
ratio (1)/(2) ([4]; Table 3, patient mean IC50 / recIIIB IC50, Example 7): 0.7
IC50 [5, 7]: 26.9 µM
IC50 [5, 8]: 15.4 µM
IC50 [5, 10]: 21.1 µM
ratio (1)/(2) ([5]; Table 4, patient mean IC50 / recIIIB IC50, Example 8): 13
IC50 [6, 7]: > 100 µM
IC50 [6, 8]: > 100 µM
IC50 [6, 10]: > 100 µM
ratio (1)/(2) ([6]; Table 5, patient mean IC50 / recIIIB IC50, Example 9): >21
